Test results reported in PMC7395068, “The evolution of strategies to minimise the risk of human drug-induced liver injury (DILI) in drug discovery and development” (Archives of Toxicology, 2020).
Like-named read-outs stand apart in the source and are kept apart here.

Assays:
HepaRG spheroids = test: Combined HCI (HCS) and cellular ATP 3D assay in HepaRG spheroids; conditions: for HepaRG <25x Avg Cmax ATP / HepaRG <100x Avg Cmaxu ATP: ATP endpoint; for HepaRG <25x Avg Cmax ATP / HepaRG <25x Avg Cmax HCS / HepaRG <25x Avg Cmax All: cut-off <25x Avg Cmax; for HepaRG <100x Avg Cmaxu ATP / HepaRG <100x Avg Cmaxu HCS / HepaRG <100x Avg Cmaxu All: cut-off <100x Avg Cmaxu; for HepaRG <25x Avg Cmax HCS / HepaRG <100x Avg Cmaxu HCS: HCS endpoints; for HepaRG <25x Avg Cmax All: all endpoints (ATP and HCS); for HepaRG Cmax max All / HepaRG Cmax min All / HepaRG <10 uM All / HepaRG <100x Avg Cmaxu All: all endpoints; for HepaRG Cmax max All: Cmax max used; for HepaRG Cmax min All: Cmax min used; for HepaRG <10 uM All: cut-off <10 uM; for AC50 / minimal effective concentration: Homo sapiens; for HepaRG <25x Avg Cmax ATP / HepaRG <100x Avg Cmaxu ATP / HepaRG <25x Avg Cmax HCS / HepaRG <100x Avg Cmaxu HCS / HepaRG <25x Avg Cmax All / HepaRG Cmax max All / HepaRG Cmax min All / HepaRG <10 uM All / HepaRG <100x Avg Cmaxu All / AC50 / minimal effective concentration: HepaRG; for DILI prediction HepaRG spheroids (HCS-MEC): Microtissue model structural based (HCI), combined HCS and ATP, MEC < 25 × Cmax.tot cut-off
[1] = plasma free fraction; cited from earlier work
[2] = Plasma free fraction (fu) and unbound Cmax (Cmax,u); assay type: in vitro ADME, human; conditions: unbound plasma Cmax
Protocol: The prediction of DILI severity was evaluated further using the 3D combined HCI assays using plasma-free fraction. The majority of fu values were obtained from literature, when unavailable in-house prediction was utilised. Unbound plasma Cmax concentrations (Cmax,u) were derived by multiplying total plasma Cmax with the corresponding free fraction (fu) for each compound.

[3] = test system: THLE or HepG2 cells, isolated mitochondria, BSEP; conditions: cited from earlier work
hLiMTs [4] = test: Combined HCI (HCS) and cellular ATP 3D assay in hLiMTs; conditions: for hLiMTs <25x Avg Cmax ATP / hLiMTs <100x Avg Cmaxu ATP: ATP endpoint; for hLiMTs <25x Avg Cmax ATP / hLiMTs <25x Avg Cmax HCS / hLiMTs <25x Avg Cmax All: cut-off <25x Avg Cmax; for hLiMTs <100x Avg Cmaxu ATP / hLiMTs <100x Avg Cmaxu HCS / hLiMTs <100x Avg Cmaxu All: cut-off <100x Avg Cmaxu; for hLiMTs <25x Avg Cmax HCS / hLiMTs <100x Avg Cmaxu HCS: HCS endpoints; for hLiMTs <25x Avg Cmax All: all endpoints (ATP and HCS); for hLiMTs Cmax max All / hLiMTs Cmax min All / hLiMTs <10 uM All / hLiMTs <100x Avg Cmaxu All: all endpoints; for hLiMTs Cmax max All: Cmax max used; for hLiMTs Cmax min All: Cmax min used; for hLiMTs <10 uM All: cut-off <10 uM
[5] = test system: HepG2 C3A spheroid, BSEP, Glu/Gal in HepG2 cells, bioactivation; conditions: In vitro Assay; ref Williams 2019; cited from earlier work
[6] = read-out: Human plasma Cmax; total plasma Cmax.tot, median of 9 literature references; cited from earlier work
[7] = test system: HepG2 cells, primary human hepatocytes; conditions: In vitro Assay; ref Garside 2014; cited from earlier work
[8] = cited from earlier work
[9] = test system: primary human hepatocytes, NIH3T3 fibroblasts, BSEP, CYP3A4; conditions: cited from earlier work
PHH = conditions: cited from earlier work
hLiMTs [10] = conditions: cited from earlier work
[11] = test system: isolated mouse liver mitochondria; conditions: In vitro Assay; ref Porceddu 2012; cited from earlier work
[12] = cited from earlier work; remark: listed apart in the source
HepG2 cells = conditions: cited from earlier work
[13] = Modeled in vitro assays (cytotoxicity, mitochondrial dysfunction, BSEP), ref Aleo et al. 2019
[14] = In vitro Assay, ref Schadt 2015
[15] = In vitro Assay, ref Proctor 2017

N[C@@H](Cc1cc(I)c(Oc2ccc(O)c(I)c2)c(I)c1)C(=O)O [liothyronine]
HepaRG <25x Avg Cmax ATP (HepaRG spheroids): -ve | HepaRG <100x Avg Cmaxu ATP (HepaRG spheroids): -ve | HepaRG <25x Avg Cmax HCS (HepaRG spheroids): -ve | HepaRG <100x Avg Cmaxu HCS (HepaRG spheroids): -ve | HepaRG <25x Avg Cmax All (HepaRG spheroids): -ve | HepaRG Cmax max All (HepaRG spheroids): -ve | HepaRG Cmax min All (HepaRG spheroids): -ve | HepaRG <10 uM All (HepaRG spheroids): +ve (<10 uM) | HepaRG <100x Avg Cmaxu All (HepaRG spheroids): -ve | AC50 (HepaRG spheroids; read-out: ATP endpoint AC50): 30.5 µM | minimal effective concentration (HepaRG spheroids; read-out: ATP endpoint MEC): 11.5 µM | AC50 (HepaRG spheroids; read-out: HCS endpoint AC50): 82.8 µM | minimal effective concentration (HepaRG spheroids; read-out: HCS endpoint MEC): 4.14 µM | DILI prediction HepaRG spheroids (HCS-MEC) (HepaRG spheroids): -VE | fu [1]: 0.020 | Human plasma Cmax,u [2]: 0.00005 µM | Partition Hybrid HRM Score ([3]; In vitro Assay, ref Aleo 2019): -VE | Ro2 Hybrid HRM Score ([3]; In vitro Assay, ref Aleo 2019): -VE | Partition Hybrid HRM Score ≥4, Aleo (2019) [3, 13]: -VE | Partition Hybrid HRM Score ≥8, Aleo (2019) [3, 13]: -VE | Rule of Two hybrid HRM Score ≥3, Aleo (2019) [3, 13]: -VE | Rule of Two hybrid HRM Score ≥8, Aleo (2019) [3, 13]: -VE | DILI prediction hLiMTs (HCS-MEC) (hLiMTs [4]; Microtissue model structural based (HCI), combined HCS and ATP, MEC < 25 × Cmax.tot cut-off): -VE | hLiMTs <25x Avg Cmax ATP (hLiMTs [4]): -ve | hLiMTs <100x Avg Cmaxu ATP (hLiMTs [4]): -ve | hLiMTs <25x Avg Cmax HCS (hLiMTs [4]): -ve | hLiMTs <100x Avg Cmaxu HCS (hLiMTs [4]): -ve | hLiMTs <25x Avg Cmax All (hLiMTs [4]): -ve | hLiMTs Cmax max All (hLiMTs [4]): -ve | hLiMTs Cmax min All (hLiMTs [4]): -ve | hLiMTs <10 uM All (hLiMTs [4]): -ve | hLiMTs <100x Avg Cmaxu All (hLiMTs [4]): -ve | Bayesian Machine Learning [5]: -VE | Cmax [6]: 0.002 µM

CN(C)C(=N)N=C(N)N [metformin]
Cluster 1-6 +VE Assay [7]: +VE | Assigned DILI category ([8]; Chen et al. 2016 or literature alignment, ref Chen et al. 2016): 2 | In vivo DILI ([8]; ref Garside 2014): +VE | In vivo DILI ([8]; ref O'Brien 2006): -VE | In vivo DILI ([8]; ref Porceddu 2012): +VE | In vivo DILI ([8]; ref Proctor 2017): +VE | In vivo DILI ([8]; ref Schadt 2015): -VE | DILI in vitro assay prediction, Schadt (2015) ([9]; BSEP & Metabolism based, ref Schadt et al. 2015): -VE | Cellular toxicity (3T3 cells) [9, 14]: -VE | Combined Assay [9, 14]: -VE | GSH adduct HML [9, 14]: -VE | Hepatocyte cellular toxicity [9, 14]: -VE | MitoTox 3T3 [9, 14]: -VE | TDI CYP3A4 [9, 14]: -VE | hBSEP inhibition [9, 14]: -VE | HepaRG <25x Avg Cmax ATP (HepaRG spheroids): -ve | HepaRG <100x Avg Cmaxu ATP (HepaRG spheroids): -ve | HepaRG <25x Avg Cmax HCS (HepaRG spheroids): -ve | HepaRG <100x Avg Cmaxu HCS (HepaRG spheroids): -ve | HepaRG <25x Avg Cmax All (HepaRG spheroids): -ve | HepaRG Cmax max All (HepaRG spheroids): -ve | HepaRG Cmax min All (HepaRG spheroids): -ve | HepaRG <10 uM All (HepaRG spheroids): -ve | HepaRG <100x Avg Cmaxu All (HepaRG spheroids): -ve | DILI prediction HepaRG spheroids (HCS-MEC) (HepaRG spheroids): -VE | PHH/100xCmax, Proctor (2017) (PHH; 2D PHH, ATP, IC50 < 100 × Cmax.tot, ref Proctor et al. 2017): -VE | PHH/100uM, Proctor (2017) (PHH; 2D PHH, ATP, IC50 threshold 100 µM, ref Proctor et al. 2017): -VE | PHH ATP <100uM (PHH; [15]): -VE | fu [1]: 0.990 | Human plasma Cmax,u [2]: 7.743 µM | hLiMTs ATP <100uM (hLiMTs [10]; [15]): -VE | hLiMTs/100xCmax, Proctor (2017) (hLiMTs [10]; hLiMTs, ATP, IC50 < 100 × Cmax.tot, ref Proctor et al. 2017): -VE | hLiMTs/100uM, Proctor (2017) (hLiMTs [10]; hLiMTs, ATP, IC50 threshold 100 µM, ref Proctor et al. 2017): -VE | in vitro data EC2<=1x Cmax [11]: +VE | in vitro data EC20<=2uM [11]: -VE | DILI prediction hLiMTs, HCI alone (hLiMTs [4]; HCS endpoints only, 25 × Cmax.tot cut-off): detection | AC50 (hLiMTs [4]; Homo sapiens, read-out: ATP endpoint AC50): 768 µM | minimal effective concentration (hLiMTs [4]; Homo sapiens, read-out: ATP endpoint MEC): 503 µM | minimal effective concentration (hLiMTs [4]; Homo sapiens, read-out: HCS endpoint MEC): 28.1 µM | DILI prediction hLiMTs, ATP alone (hLiMTs [4]; cellular ATP only, 25 × Cmax.tot cut-off): unpredicted | hLiMTs <25x Avg Cmax ATP (hLiMTs [4]): -ve | hLiMTs <100x Avg Cmaxu ATP (hLiMTs [4]): +ve (<100x Avg Cmaxu) | hLiMTs <25x Avg Cmax HCS (hLiMTs [4]): +ve | hLiMTs <100x Avg Cmaxu HCS (hLiMTs [4]): +ve (<100x Avg Cmaxu) | hLiMTs <25x Avg Cmax All (hLiMTs [4]): +ve | hLiMTs Cmax max All (hLiMTs [4]): +ve | hLiMTs Cmax min All (hLiMTs [4]): +ve | hLiMTs <10 uM All (hLiMTs [4]): -ve | hLiMTs <100x Avg Cmaxu All (hLiMTs [4]): +ve (<100x Avg Cmaxu) | DILI severity category (Chen et al. [2016]) ([12]; LTKB DILIrank category, ref Chen et al. 2016): Less | DILI severity category (Chen 2016) ([12]; human DILI classification, LTKB DILIrank, ref Chen et al. 2016): Less | DILI severity category ([12]; human DILI severity, ref Chen et al.): Less | DILI +VE (5-8), DILI -VE (-4) ([12]; ref Chen 2016): +VE | DILI severity category ([12]; ref Chen 2016): vLess-DILI-Concern | Structural based (HCI) (HepG2 cells; In vitro Assay, ref O'Brien 2006): +VE | DILI in vitro assay prediction, O'Brien (2006) (HepG2 cells; Structural based (HCI), HepG2, ref O'Brien et al. 2006): +VE (lowest HCI endpoint IC50 (or in the absence of dose–response < 100 µM) < 30 × total human plasma exposure levels (Cmax.tot)) | Cmax [6]: 7.82 µM
